Data set [1] relates to THP-1. Description: Anti-inflammatory activity in human THP-1 cells assessed as inhibition of IL-1beta protein expression incubated for 24 hrs by Western blot analysis. Particulars: THP-1, 24 h. In kind it is functional, cell-based. For orientation: A western blot detects proteins with antibodies after separation by electrophoresis.
For data set [2], the system named is THP-1. Description: Antiinflammatory activity against human THP-1 cells assessed as inhibition of LPS-induced TNF-alpha production. Format: functional, cell-based.
The subject of a further data set is RAW264.7. Put plainly: Anti-inflammatory activity in LPS-induced mouse RAW264.7 cells assessed as inhibition of IL-6 production. In kind it is functional, cell-based.
Data set [3] in a line: Oral bioavailability in Sprague-Dawley rat at 10 mg/kg by LC-MS analysis. Format: ADME, organism-based. To be noted: in vivo.
Data set [4] can be described thus: Clearance in Sprague-Dawley rat at 10 mg/kg, iv by HPLC-MS analysis. In kind it is ADME, organism-based. To be noted: in vivo.
Data set [5] can be described thus: Volume of distribution at steady state in Sprague-Dawley rat at 10 mg/kg, iv measured for 24 hrs by LC-MS/MS analysis. Format: ADME, organism-based. Particulars: in vivo, read-out: Vdss.
Data set [6] can be described thus: Tmax in Wistar rat at 10 mg/kg, po by LC-MS/MS analysis. In kind it is ADME, organism-based. To be noted: in vivo.
Data set [7] can be described thus: Cmax in Wistar rat at 10 mg/kg, po by LC-MS/MS analysis. Format: ADME, organism-based. Particulars: in vivo.
Data set [8] can be described thus: AUC in Sprague-Dawley rat at 10 mg/kg, po measured for 24 hrs by LC-MS/MS analysis. Format: ADME, organism-based. Particulars: in vivo.
The nature of data set [9]: Half life in Sprague-Dawley rat at 10 mg/kg, po by LC-MS analysis. Format: ADME, organism-based. To be noted: in vivo.
Data set [10] can be described thus: Half life in Beagle dog at 5 mg/kg, po by LC-MS/MS analysis. Format: ADME, organism-based, Canis lupus familiaris. To be noted: in vivo.
Data set [11] is described as follows: Clearance in rat. In kind it is ADME. Particulars: in vivo.
The nature of data set [12]: Clearance in dog. In kind it is ADME, Canis lupus familiaris. To be noted: in vivo.
The nature of data set [13]: Oral bioavailability in ICR mouse. Format: ADME, organism-based. Particulars: in vivo.
A short description of data set [14]: Oral bioavailability in rat. Particulars: in vivo. Format: ADME, organism-based.
Data set [15] can be described thus: Cmax in ICR mouse at 5 mg/kg, iv by LC-MS/MS analysis. In kind it is ADME, organism-based. To be noted: in vivo.
Data set [16] in a line: Cmax in Wistar rat at 3 mg/kg, iv. Particulars: in vivo. In kind it is ADME, organism-based.
Data set [17] can be described thus: Tmax in ICR mouse at 5 mg/kg, iv. To be noted: in vivo. Format: ADME, organism-based.
Data set [18] can be described thus: MRT in ICR mouse at 5 mg/kg, iv by LC-MS/MS analysis. In kind it is ADME, organism-based. To be noted: in vivo.
The nature of data set [19]: Clearance in ICR mouse at 2 mg/kg, iv. To be noted: in vivo. Format: ADME, organism-based.
A short description of data set [20]: Clearance in Wistar rat at 3 mg/kg, iv. In kind it is ADME, organism-based. Particulars: in vivo.
Data set [21] is described as follows: Volume of distribution at steady state in ICR mouse at 2 mg/kg, iv. To be noted: in vivo, read-out: Vdss. In kind it is ADME, organism-based.
The nature of data set [22]: Volume of distribution at steady state in Wistar rat at 3 mg/kg, iv. In kind it is ADME, organism-based. Particulars: in vivo, read-out: Vdss.

Results on 4 compounds are retold here after ChEMBL document CHEMBL6083249, “The journey of p38 MAP kinase inhibitors: From bench to bedside in treating inflammatory diseases” (Eur J Med Chem, 2024).

On to `Cn1c(=O)c(Oc2ccc(F)cc2F)cc2cnc(NC3CCOCC3)nc21` [R-1487], for which the figures for the IC50 with THP-1 [1] and in the data set with THP-1 [2] were 170 nM and 800 nM, respectively. The EC50 in the data set with RAW264.7 is 10 nM. In data set [3], this compound returned a bioavailability of 29.3%. Further, the clearance in [4] is 20.7 mL/min/kg. In addition, the Vd in [5] turned out to be 1.94 L/kg. Also, the time of peak concentration (Tmax) in data set [6] was 2 h. For the same compound, the Cmax in data set [7] is 650 ng/mL. For the same compound, the AUC in data set [8] amounted to 2.35 µg/h/mL.
Consider `Cn1c(=O)c(Oc2ccc(F)cc2F)cc2cnc(NC(CCO)CCO)nc21` [PAMAPIMOD], for which the half-maximal inhibitory concentration (IC50) with THP-1 [1] was determined as 100 nM; in the data set with THP-1 [2], 300 nM. Besides, the EC50 in the data set on RAW264.7 was determined as 50 nM. Moreover, the bioavailability in data set [3] came to 80.1%. The compound further gave a clearance in data set [4] of 21 mL/min/kg. Besides, in data set [5], the Vd amounted to 3.56 L/kg. Moreover, in data set [6], the Tmax worked out at 0.5 h. The compound also yielded a Cmax in [7] of 1340 ng/mL. This compound also had a half-life in data set [9] of 4.04 h. The compound also showed an AUC in [8] of 3.13 µg/h/mL.
Consider `O=C(CO)N1CCC(c2[nH]nc(-c3ccc(Cl)cc3)c2-c2ccncn2)CC1` [SD-0006], for which the half-life in data set [10] is 4.48 h. Further, the clearance is 4.86 mL/min/kg in data set [11] and 2.92 mL/min/kg in [12].
Consider `CCCNC(=O)c1cn2ncnc(Nc3cc(C(=O)NC4CC4)ccc3C)c2c1C` [BMS-582949], for which the results for the bioavailability in data set [13] and in data set [14] were 90% and 60%, respectively. For the same compound, the values for the Cmax in [15] and in data set [16] were 15.3 µM and 7 µM, respectively. In [17], the time of peak concentration (Tmax) was found to be 1 h. In data set [18], this compound had a mean residence time (MRT) of 3.3 h. For the same compound, the clearance came to 4.4 mL/min/kg in data set [19] and 5.4 mL/min/kg in [20]. The Vd in data set [21] amounted to 0.9 L/kg; in data set [22], 1.1 L/kg.

For orientation: IC50 means the midpoint of a concentration-inhibition curve. One may read the EC50 as the midpoint of the concentration-response curve. As usually defined, the bioavailability is dose-corrected exposure relative to a reference, in per cent. A word on the clearance: it is the rate of elimination divided by the concentration. Higher therefore signals a high capacity for elimination. Usually Tmax stands for the time from dosing to the highest level. For orientation: Cmax means the highest concentration seen after dosing. One may read the half-life as the time in which the quantity being followed falls by half. Low values mean fast loss, high ones slow loss. As usually defined, the MRT is the average time that molecules of a dose stay in the body.
